These results are taken from patent US20250064803A1, “DOSAGE REGIMENS FOR PARP7 INHIBITORS” (Ribon Therapeutics, Inc., priority 2021, published 2025).

The nature of series [1]: Plasma pharmacokinetics after oral tablets and capsules in male Beagle dogs. The following applies: for AUC / Cmax: male, Beagle, dog, plasma, po, 100 mg. The format is in vivo. An excerpt: The objective of this study was to determine the plasma pharmacokinetic profiles of the compound of Formula I in male Beagle dogs after oral administration and to assess the exposure of tablets and capsules formulations.
Male Beagle dogs were purchased from Jiangsu Johnsen Bioresource CO., Ltd. The animals were 1-2.5 years old on the dosing day. All animals were housed in a 12-hour light/12-hour dark cycle environment. Animals for oral (PO) groups were fasted overnight prior to dosing and were fed approximately 2 hours after dosing. This study was approved by the Pharmaron Institutional Animal Care and Use Committee.
The compound of Formula I was used for the dose formulation and standard stock solution preparation. […] For the animals in PO groups, pentagastrin ([…], i.m.) was administrated 20 minutes before dosing PO formulation and 1.5 hours after the first pentagastrin dosing. The dosing volume was 0.024 mL/kg, the concentration was […] in DMSO/1 N NaOH/PBS. The dosing volume, detailed dosing time of pentagastrin was recorded. 10 mL of 0.001 N HCl was used to wash the gavage catheter for each animal.
Blood samples (0.5 mL) were collected from each animal via jugular veins. These blood samples were placed into tubes containing dipotassium ethylenediaminetetraacetic acid and then centrifuged at 2000 g for 10 minutes at 4° C. to produce plasma. All samples were stored at −75±15° C. until analysis.
Compound of Formula I was prepared in dimethyl sulfoxide with vortex at 1 mg/mL (free form) as standard stock solution. Calibration standard working solutions were prepared at concentrations of 5, 10, 20, 50, 100, 500, 1000, 5000, 10000 and 20000 ng/mL by serial dilution of the standard stock solution by 50% acetonitrile in water. […] These QC samples were prepared on the day of analysis in the same way as calibration standards.
5 μL of each calibration standard working solution (5, 10, 20, 50, 100, 500, 1000, 5000, 10000 and 20000 ng/mL) was added to 50 μL of blank Beagle Dog plasma to achieve calibration standards of 0.5-2000 ng/mL (0.5, 1, 2, 5, 10, 50, 100, 500, 1000, 2000 ng/mL) in a total volume of 55 μL. […] These QC samples were prepared on the day of analysis in the same way as calibration standards. 55 μL of standards, 55 μL of QC samples or 55 μL of unknown samples (50 μL of plasma sample with 5 μL 50% acetonitrile in water) were mixed with 200 μL of acetonitrile containing IS (internal standard, dexamethasone) to precipitate proteins. Then the samples were vortexed for 30 sec.
Data Acquisition was Performed by Sciex Analyst 1.6.3 Software (AB Sciex, Forster City, CA). Pharmacokinetic parameters were calculated by non-compartmental analysis (Phoenix TM WinNonlin® 6.1). The linear trapezoidal algorithm was used for AUC calculation.

Series [2] can be described thus: First-in-human Phase 1 dose escalation study: treatment-related adverse events, safety. It is filed as in vivo. From the text:
This protocol is a first-in-human, Phase 1, multi-center, open-label, study designed to evaluate the safety profile, including any dose-limiting toxicities (DLTs), and (maximum tolerated dose) MTD of the compound of Formula I administered as a single agent PO and establish the recommended phase 2 dose (RP2D) of the compound of Formula I. The study has a Dose Escalation Phase, which includes a relative bioavailability assessment, followed by a Dose Expansion Phase in patients with selected tumor types.
In the Dose Escalation Phase of the study, patients with any histologically- or cytologically-confirmed solid tumor type (which may include “solid” lymphoma [e.g., mantle cell]) that is refractory to standard therapy and for whom no therapy exists that would be curative or might provide clinical benefit and therefore for whom experimental therapy is a reasonable option are eligible. In the Dose Expansion Phase of the study, the RP2D will be investigated in the following cancer types: squamous cell carcinoma of the lung (SCCL), head and neck squamous cell carcinoma (HNSCC), hormone receptor positive (HR+) breast cancer, and PARP7 amplified cancer.
Two schedules are employed in the Dose Escalation Phase: • Schedule 1 will examine a 21-day cycle with 14 days of the compound of Formula I administered at doses of 25 mg, 50 mg, 100 mg, 200 mg, 300 mg, and 500 mg BID followed by a rest period. • Schedule 2 will examine a 21-day continuous dosing cycle at doses of 100 mg, 200 mg, 300 mg, and 400 mg BID.
The most frequent compound of Formula I treatment-related AEs in the ongoing Phase 1 escalation study are dysgeusia or taste disorder (36%), decreased appetite (15%), fatigue (14%), nausea (12%), and anemia, constipation, diarrhea and decreased weight (10%) each.
Overall, the safety profile of the compound of Formula I is considered manageable at the RP2D for combination with pembrolizumab.

Series [3] can be described thus: Particle size by laser diffraction (USP 42 <429>, Malvern Mastersizer 3000). It is filed as physicochemical. An excerpt: The compound of Formula I can be prepared in micronized and nonmicronized forms. In some embodiments, the compound of Formula I used in the dosage forms of the invention is micronized. The micronized drug substance can be prepared, for example, by jet milling. Particle size can be measured by laser diffraction methods (e.g., USP 42 <429> Light Diffraction Measurement of Particle Size). Nonmicronized compound can have a particle diameter size [d90] of about 30 μm or larger. In some embodiments, nonmicronized compound has a particle diameter size [d90] of about 30 to about 500 μm, about 50 to about 400 μm, about 100 to about 350 μm, or about 150 to about 300 μm.
Micronized batches of the compound of Formula I were prepared by jet milling using a nitrogen gas feed. The nonmicronized starting material was prepared in a manner similar to the process for preparing crystalline compound of Formula I described in U.S. Pat. No. 10,550,105. Particle size was measured by laser diffraction according to USP 42 <429> using a Malvern Mastersizer 3000 equipped with a Hydro MV wet dispersion sample unit. Particle size diameters [d90] for two different lots were measured as 10.851 and 8.715 μm, respectively.

Series [4] in a line: Relative bioavailability PK of micronized vs nonmicronized 100 mg tablets in Phase 1 patients. It is filed as in vivo, human. The procedure:
Assessments conducted after C1D1 will be the same as described for patients in the dose escalation cohorts following Schedule 2. Based on emerging PK data, additional Relative Bioavailability Cohorts at additional dose levels may be explored.
Patients enrolled in the Relative Bioavailability Cohort(s) will have an additional visit 7 days (±3 days) prior to C1D1. […] On C1D-7 patients will be attached to a Holter monitor that will run continuously for ˜24 hours (i.e., until patients return on the following day for the 24-hr PK sample collection on C1D-6). […] On C1D1, patients will be attached to a Holter monitor that will run continuously for ˜24 hours (i.e., immediately before the study drug dose on C1D2). […] Samples collected after C1D2 are not considered part of the relative Bioavailability data set.
Plasma samples were collected at 0.5, 1, 2, 4, 6, 8, 12 and 24 hours post dose. […] Plasma samples were collected at 0.5, 1, 2, 4, 6, 8, 12 and 24 hours post dose.

The conditions of series [5]: cited from earlier work.
[6] abbreviates: 100 mg capsule, micronized vs nonmicronized.
[7] abbreviates: particle size d90:d50 18:5 μm (micronized).
The mark [8] stands for this setting: particle size d90:d50 228:108 μm (nonmicronized).
The mark [9] stands for this setting: patients, ongoing Phase 1 escalation study.
[10] abbreviates: NSCLC patients, second or third line, Keynote-010 (n=682).

Several values for one entry are separate records, joined by “and”; a condition that tells them apart may be missing. Equal entries are not always repeated. Entries after “also recorded” stand apart in the source; their conditions may differ.

On to `C[C@@H](COCCC(=O)N1CCN(c2ncc(C(F)(F)F)cn2)CC1)Nc1cn[nH]c(=O)c1C(F)(F)F` [compound of Formula I, 5-[[(2S)-1-(3-oxo-3-[4-[5-(trifluoromethyl)pyrimidin-2-yl]piperazin-1-yl]propoxy)propan-2-yl]amino]-4-(trifluoromethyl)-2,3-dihydropyridazin-3-one], for which, in series [1] (setting [6]), the “increase in AUC by micronization” value amounted to 2.8 fold and the “increase in Cmax by micronization” value was determined as 4.7 fold. Moreover, the “exposure, micronized capsules (Group E) versus nonmicronized capsules (Group D)” value in series [1] (100 mg/dog PO) is recorded as “much higher”. The “oral exposure versus dose level” value in series [1] (Groups A, B and C, tablets 25, 50, 100 mg/dog) is reported as “increased with the dose level, though not linear”. In series [1] (setting [7]), this molecule returned an AUC of 9560 ng·h/mL and a peak concentration (Cmax) of 1670 ng/mL. Further, in series [1] (setting [8]), the area under the curve (AUC) was 3400 ng·h/mL and the concentration peaked (Cmax) at 356 ng/mL. In addition, in series [2] (50 patients, first-in-human Phase 1 trial), the “safety profile / tolerability” value is on record as “favorable safety profile; also recorded: well tolerated”. Further, in series [2] (setting [9]), the “treatment-related AE: anemia” value is 10%, the “treatment-related AE: constipation” value was 10%, the “treatment-related AE: decreased appetite” value was 15% and the “treatment-related AE: decreased weight” value was 10%. In addition, in series [2] (setting [9]), the “treatment-related AE: diarrhea” value came to 10%, the “treatment-related AE: dysgeusia or taste disorder” value was 36%, the “treatment-related AE: fatigue” value is reported as 14% and the “treatment-related AE: nausea” value worked out at 12%. Besides, the “particle diameter size d[90]” value in series [3] (micronized compound (jet milled)) was 10.851 μm and 8.715 μm. Moreover, the “particle diameter size d[90]” value in series [3] (nonmicronized compound) was determined as 228.474 μm. In series [4], the “increase in mean AUC, micronized vs nonmicronized tablet” value is recorded as “about 1.5 fold” and the “increase in mean Cmax, micronized vs nonmicronized tablet” value is given as “about 2.4 fold”.
“pembrolizumab: humanized antibody that binds to human PD-1, approved by the U.S. FDA”: in series [5] (setting [10]), the “adverse reactions leading to discontinuation” value is on record as 8% and the “pneumonitis leading to discontinuation (most common)” value was 1.8%. In series [5] (single agent (Merck 2021)), the “most frequent treatment-related AEs (fatigue, musculoskeletal pain, decreased appetite, pruritus, diarrhea, nausea, rash, pyrexia, cough, dyspnea, constipation, pain, abdominal pain), reported in” value is over 20%.

Usually AUC stands for the area under the concentration-time curve, a measure of exposure. Usually Cmax stands for the maximum level reached in the sampled fluid or tissue.
